This note sets out measurements from PMC12305296, “Repurposing of FDA‐Approved Drugs to Disrupt Iron Uptake in Mycobacterium abscessus: Targeting Salicylate Synthase as a Novel Approach” (Chemical Biology & Drug Design, 2025).

The target in test [1] is T1, recombinant Mab‐SaS (Mycobacteroides abscessus, UniProt B1MAQ5). The test is described as follows: Mab‐SaS enzyme inhibition, direct fluorometric assay. It counts as biochemical, Mycobacterium abscessus. The settings on record: for remaining activity at 100 µM: read-out: residual activity at 100 μM (%); for Ki: steady‐state kinetics, competitive inhibition equation; for mode of inhibition towards CHO: reciprocal plots of steady‐state kinetics; for inhibition at 100 µM: read-out: inhibition of Mab‐SaS at 100 μM. The method, then: The recombinant Mab‐SaS was expressed in E. coli and purified as previously reported (Mori et al. [2023]). Enzyme activity was determined by a direct fluorometric assay (Mori et al. [2020]). Briefly, the assays were performed in 400 μL of 50 mM potassium phosphate pH 8.0, containing 5 mM MgCl2, and 1–2 μM Mab‐SaS. The reaction was started by the addition of CHO and monitored using a PerkinElmer LS3 fluorimeter (Ex. λ = 305 nm, Em. λ = 410 nm; PerkinElmer, Waltham, MA, USA).
The compounds identified by the in silico investigations were purchased from CymitQuimica S.L. and dissolved at a concentration of 20 mM in dimethylsulfoxide (DMSO) or water, according to their solubility. Specifically, gentamycin, cytidine, amifostine, and hydroxystilbamidine were dissolved in water, while esomeprazole, fostamatinib, S‐adenosyl‐L‐homocysteine, norepinephrine, labetalol, levolansoprazole, and nebivolol were dissolved in DMSO.
The inhibitory activity of the candidates was initially evaluated at a final concentration of 100 μM, using a subsaturating concentration of the substrate (CHO) of 70 μM. […] IC50 was calculated by measuring enzymatic activity in the presence of different compound concentrations, using (Equation 1), where A[I] is the enzyme activity at inhibitor concentration [I] and A[0] is the enzyme activity without inhibitor. (1) AI=A0×1−I/I+IC50
The inhibition constant values (K i) were determined by assaying Mab‐SaS at different substrate and compound concentrations and using an adapted equation for competitive inhibition (Equation 2) with GraphPad 8.0 software. (2) v=VmaxS/S+Km1+I/Ki

The target of test [2] is T1, recombinant Mab‐SaS. Kind of test: PAINS control assays (BSA, Triton X‐100, DTT) on Mab‐SaS inhibition. Type of test: biochemical, Mycobacterium abscessus. Conditions: for inhibition in presence of BSA and Triton X‐100 (aggregation check): 0.1 mg/mL BSA or 0.01% (v/v) Triton X‐100; for effect of DTT on inhibition (cysteine reactivity check): 100 mM DTT.
The next test deals with M. smegmatis mc^2155. The test is described as follows: REMA antimycobacterial assay in iron‐limiting chelated Sauton's medium. Type of test: cell-based. Conditions: Mycolicibacterium smegmatis, iron‐limiting conditions. The procedure: Antimycobacterial activity of the best compounds was evaluated by REMA assay in iron‐limiting chelated Sauton's medium on M. smegmatis MC^2 155 (Siegrist et al. [2009]; Mehra and Philips [2014]). This microorganism is widely used as a non‐pathogenic model for Mab, since it shares similar biological characteristics and replicates more rapidly than other mycobacteria. By using this non‐pathogenic microorganism, we could efficiently study processes related to Mab, while minimizing the hazards and technical difficulties of working directly with a pathogenic strain.

What is called IC50 is the concentration needed to halve the response being measured. What is called Ki is a measure of affinity in units of concentration, obtained from inhibition or displacement. One may read the residual activity as the share of the control activity or signal that is left under treatment. Broadly, the MIC is the lowest concentration found to suppress growth. Higher therefore signals weaker potency. What is called inhibition is the relative decrease from the control value, in per cent.

Values after ≈ are worked out from the molar mass of the structure shown.

T1 sequence (B1MAQ5 entry or part of it): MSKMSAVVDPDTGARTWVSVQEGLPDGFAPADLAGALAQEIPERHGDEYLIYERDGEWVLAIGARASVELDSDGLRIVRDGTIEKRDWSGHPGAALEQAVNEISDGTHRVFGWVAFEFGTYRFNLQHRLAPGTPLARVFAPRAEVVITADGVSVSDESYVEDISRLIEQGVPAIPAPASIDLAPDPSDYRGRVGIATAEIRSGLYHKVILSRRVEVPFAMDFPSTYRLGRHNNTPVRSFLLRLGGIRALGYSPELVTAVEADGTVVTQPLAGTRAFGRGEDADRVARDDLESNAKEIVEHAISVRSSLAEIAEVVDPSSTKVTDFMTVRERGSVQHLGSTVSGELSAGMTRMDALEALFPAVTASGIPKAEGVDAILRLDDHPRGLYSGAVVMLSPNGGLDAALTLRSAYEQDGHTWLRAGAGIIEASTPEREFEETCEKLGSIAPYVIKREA

`NCCCNCCSP(=O)(O)O` [Amifostine]: at recombinant Mab‐SaS [1], the remaining activity at 100 µM came out at 78.1 ± 3.2%.
In the case of `Nc1ccn([C@@H]2O[C@H](CO)[C@@H](O)[C@H]2O)c(=O)n1` [Cytidine], at recombinant Mab‐SaS [1], the remaining activity at 100 µM was 88.8 ± 2.5%.
Take `COc1ccc2nc([S@@+]([O-])Cc3ncc(C)c(OC)c3C)[nH]c2c1` [Esomeprazole]: on recombinant Mab‐SaS [1], the IC50 was determined as 13.6 ± 1.1 µM, the Ki stood at 3.7 ± 0.4 µM, the remaining activity at 100 µM was determined as 3.3 ± 1.7% and the “mode of inhibition towards CHO” value was “competitive”. Moreover, the “inhibition of Mab‐SaS at 100 μM” value on recombinant Mab‐SaS [1] (100 μM compound, 70 μM CHO) is “completely blocked the enzymatic activity”. At recombinant Mab‐SaS [2], the “inhibition in presence of BSA and Triton X‐100 (aggregation check)” value (“inhibition in presence” below) is “inhibited the enzyme”; the “effect of DTT on inhibition (cysteine reactivity check)” value (from here on “effect of DTT on inhibition”) is “no impact on the inhibition”.
As for `COc1cc(Nc2ncc(F)c(Nc3ccc4c(n3)N(COP(=O)(O)O)C(=O)C(C)(C)O4)n2)cc(OC)c1OC` [Fostamatinib], at recombinant Mab‐SaS [1], the 50% inhibitory concentration (IC50) came out at 21 ± 1.3 µM, the Ki was determined as 11.7 ± 0.7 µM and the “mode of inhibition towards CHO” value is “competitive”. Besides, the “inhibition of Mab‐SaS at 100 μM” value at recombinant Mab‐SaS [1] (100 μM compound, 70 μM CHO) is on record as “completely blocked the enzymatic activity”. Further, the “residual activity at 100 μM (%)” value at recombinant Mab‐SaS [1] (100 μM compound, 70 μM CHO, Mean ± SD of three experiments) is recorded as 11.6 ± 0.7%. In addition, at recombinant Mab‐SaS [2], the “inhibition in presence” value is listed as “inhibited the enzyme”; the “effect of DTT on inhibition” value is “no impact on the inhibition”.
Turning to `CNC(C)C1CCC(N)C(OC2C(N)CC(N)C(OC3OCC(C)(O)C(NC)C3O)C2O)O1` (stereo not shown) [Gentamycin], on recombinant Mab‐SaS [1] (100 μM compound, 70 μM CHO), the “inhibition of Mab‐SaS at 100 μM” value was “did not exhibit any inhibitory effect”. For the same molecule, the remaining activity at 100 µM at recombinant Mab‐SaS [1] turned out to be 98.8 ± 5.7%.
With `N=C(N)c1ccc(/C=C/c2ccc(C(=N)N)cc2O)cc1` [Hydroxystilbamidine], at recombinant Mab‐SaS [1], the concentration for half-maximal inhibition (IC50) came to 11.5 ± 1.1 µM, the inhibitory constant (Ki) turned out to be 5.4 ± 0.5 µM, the remaining activity at 100 µM is 0.5 ± 0.3% and the “mode of inhibition towards CHO” value was “competitive”. Further, the “inhibition of Mab‐SaS at 100 μM” value at recombinant Mab‐SaS [1] (100 μM compound, 70 μM CHO) is “completely blocked the enzymatic activity”. In addition, at recombinant Mab‐SaS [2], the “inhibition in presence” value is given as “inhibited the enzyme”; the “effect of DTT on inhibition” value is reported as “no impact on the inhibition”. In the test on M. smegmatis mc^2155, the minimal inhibitory concentration (MIC) worked out at 250 µM (≈ 70.1 µg/mL).
Turning to `CC(CCc1ccccc1)NCC(O)c1ccc(O)c(C(N)=O)c1` (stereo not shown) [Labetalol], on recombinant Mab‐SaS [1], the inhibition at 100 µM was ~53% and the remaining activity at 100 µM was found to be 47 ± 2.1%.
As for `Cc1c(OCC(F)(F)F)ccnc1C[S@+]([O-])c1nc2ccccc2[nH]1` [Levolansoprazole], on recombinant Mab‐SaS [1], the inhibition at 100 µM is ~37% and the remaining activity at 100 µM was 62.8 ± 1.7%.
With `OC(CNCC(O)C1CCc2cc(F)ccc2O1)C1CCc2cc(F)ccc2O1` (stereo not shown) [Nebivolol], the remaining activity at 100 µM on recombinant Mab‐SaS [1] was 82.3 ± 1.3%.
Take `NC[C@H](O)c1ccc(O)c(O)c1` [Norepinephrine]: at recombinant Mab‐SaS [1], the inhibition at 100 µM was ~24% and the remaining activity at 100 µM was 75.5 ± 1.4%.
Turning to `Nc1ncnc2c1ncn2[C@@H]1O[C@H](CSCC[C@H](N)C(=O)O)[C@@H](O)[C@H]1O` [S‐adenosyl‐L‐homocysteine], the remaining activity at 100 µM at recombinant Mab‐SaS [1] came to 102 ± 3.8%.
